According to patent US9370542B2, “Medical composition containing Stauntonia hexaphylla extract” (JEONNAM BIOINDUSTRY FOUNDATION, priority 2011, dated 2016):

Tested on: fever induced by lipopolysaccharide (LPS)
Assay: LPS-induced fever, antipyretic effect of leaf extract (Example 9-1)
Type: in vivo, Sprague-Dawley male white rats
Experimental: Test animals were used to determine antipyretic effects of the Stauntonia Hexaphylla leaf extract and fractions thereof prepared in Example 1.
The test animals herein used were 5-week old Sprague-Dawley male white mice obtained from Samtako Inc. (Korea). The test animals were bred at a temperature of 20° C. to 24° C. and at a humidity of 60% to 70% under the day-night illumination condition at 12-hour intervals and were freely fed with water and feed. The feed used herein was a solid feed (Samyang Feed Co., Korea). The test animals were bred under the same conditions for 7 days, adapted to laboratory environments and then used for testing.
Specifically, 5 mice were randomly selected from the test animals and set as a first group, and 500 μg/kg of lipopolysaccharide (LPS, Sigma, USA) was intraperitoneally injected into the mice to induce fever. Body temperature was measured as follows. Rectal body temperature was measured using a rectal thermometer (Portable Thermocouple Thermometer (Physitemp Instruments, USA) and a stainless steel rectal probe for rats (Physitemp Instruments, USA) and body temperatures of SD mice were measured three times before the test to minimize an temperature increase caused by temperature measurement stress.
First, in order to determine antipyretic effects of the Stauntonia Hexaphylla leaf hot water extract, a negative control group (LPS) not treated with any sample, a first positive control group (APAP) orally administered with 50 mg/kg of acetaminophen (APAP, Sigma, USA), a conventional drug, found to have antipyretic effect, and a second positive control group (Dexamethasone) orally administered with 1 mg/kg of dexamethasone (Sigma, USA) were used.
First, 500 μg/kg of a fever-inducing substance (LPS) was intraperitoneally injected (i.p.) into the test animals that finished preparations for minimization of temperature increase caused by temperature measurement stress, and a non-treated group (LPS), a group (SHL-200) orally administered with 200 mg/kg of the Stauntonia Hexaphylla leaf hot water extraction, a group (APAP) orally administered with 50 mg/kg of acetaminophen, and a group (Dexamethasone) orally administered with 1 mg/kg of dexamethasone were prepared according to type of test groups. In addition, 200 mg/kg of the Stauntonia Hexaphylla leaf hot water extract was orally administered one hour after administration of the fever-inducing substance (SHL-200 (1 h)), and rectal temperatures were measured at one hour, 4 hours and 8 hours over 8 hours in total after the administration of the fever-inducing substance. The measurement results are shown in FIG. 12 and the following Table 3. Values of the following Table 3 mean body temperatures (° C.) measured at different times.

Row | Compound | body temperature (rectal) (0 h, 50 mg/kg oral with LPS 500 μg/kg i.p.) [°C] | body temperature (rectal) (1 h, 50 mg/kg oral with LPS 500 μg/kg i.p.) [°C] | body temperature (rectal) (4 h, 50 mg/kg oral with LPS 500 μg/kg i.p.) [°C] | body temperature (rectal) (8 h, 50 mg/kg oral with LPS 500 μg/kg i.p.) [°C] | body temperature (rectal) (0 h, 1 mg/kg oral with LPS 500 μg/kg i.p.) [°C] | body temperature (rectal) (1 h, 1 mg/kg oral with LPS 500 μg/kg i.p.) [°C] | body temperature (rectal) (4 h, 1 mg/kg oral with LPS 500 μg/kg i.p.) [°C] | body temperature (rectal) (8 h, 1 mg/kg oral with LPS 500 μg/kg i.p.) [°C]
1 | CC(=O)Nc1ccc(O)cc1 [APAP, acetaminophen] | 37.2 | 36.58 ± 0.67 | 37.53 ± 0.59 | 37.78 ± 0.13 |  |  |  | 
2 | C[C@@H]1C[C@H]2[C@@H]3CCC4=CC(=O)C=C[C@]4(C)[C@@]3(F)[C@@H](O)C[C@]2(C)[C@@]1(O)C(=O)CO [Dexamethasone, dexamethasone] |  |  |  |  | 37.2 | 37.3 ± 0.52 | 37.6 ± 0.12 | 37.73 ± 0.13
